Data published in patent US10253002B2, “Compounds and methods of treating infections” (Neoculi Pty Ltd., priority 2013, dated 2019).
Several values for one entry are separate records, joined by “and”; a condition that tells them apart may be missing. Equal entries are not always repeated.

Columns and labels:
[1] = system: S. aureus isolates (HA-MRSA, CA-MRSA, methicillin-susceptible staphylococci); assay: Kirby-Bauer disc diffusion resistotyping, Example 4; assay type: cell-based, Staphylococcus aureus; conditions: for Total isolates resistant (Kirby-Bauer disc diffusion): all isolates (n = 30)
Method: Antibiotic-susceptibility profiling of the isolate collection was undertaken using Kirby-Bauer disc diffusion, as recommended by the Clinical and Laboratory Standards Institute (CLSI) on Mueller-Hinton agar. Isolates were grown overnight on SBA at 37° C. Colonies were suspended in physiological saline. Turbidity was adjusted to a 0.5 McFarland standard and suspensions were spread over the medium. Antibiotic discs according to Table 9 below were transferred onto the inoculated medium and analysed after 24 h incubation at 37° C.

[2] = system: Staphylococcus pseudintermedius isolates (MSSP and MRSP); assay: Disk diffusion and Epsilometer susceptibility testing, Example 6; assay type: cell-based
S. pneumoniae isolates = assay: Disk diffusion susceptibility (CLSI/EUCAST), Example 5; assay type: cell-based, Streptococcus pneumoniae
Method: Isolate susceptibility to 12 different antimicrobials (Table 16) was determined by CLSI and European Committee on Antimicrobial Susceptibility Testing (EUCAST) methods. Antimicrobials were selected based upon the CLSI and EUCAST guidelines. Standardised bacterial suspensions were spread onto MHSBA using a sterile cotton swab. Bacterial suspensions from of Streptococcus pneumoniae were standardised to an OD6O0 between 0.08 and 0.1 using a spectrophotometer and then diluted 1:20. Bacterial colonies were taken from an O/N horse blood agar plate. To ensure the purity of the 1:20 bacterial suspension, 50 μL was spread plated onto horse blood agar and incubated O/N at 37° C. with 5% CO2. The CFU was calculated and compared to the initial plate counts. Antibiotic disks (Purchased from Sigma Aldrich) were placed using a disk dispenser (Purchased from Oxoid) according to CLSI standards. MHSBA plates were incubated for 16 h-24 h at 37° C. in 5% CO2. Zones of complete inhibition were measured in triplicate to the nearest millimeter using a ruler on natural light-reflected growth, and the mode was represented as the diameter for each isolate. Pneumococcal isolates were categorised as sensitive, intermediate (I) or resistant (R) by CLSI standards and quality control (QC) ranges (Table 16).

[3] = Methicillin-susceptible staphylococci (n = 10)

CO[C@@]1(NC(=O)C2SC(=C(C(N)=O)C(=O)O)S2)C(=O)N2C(C(=O)O)=C(CSc3nnnn3C)CS[C@@H]21 (stereo partly shown) [Cefotetan]
isolates resistant (Kirby-Bauer disc diffusion) ([1]; CA-MRSA (n = 10)): 20.00% | isolates resistant (Kirby-Bauer disc diffusion) ([1]; HA-MRSA (n = 10)): 80.00% | isolates resistant (Kirby-Bauer disc diffusion) [1, 3]: 0.00% | resistant isolates, number (percentage) ([1]; Unclassified (n = 2), Overall): 2 (100%) | Total isolates resistant (Kirby-Bauer disc diffusion) [1]: 33.33% | resistant isolates, number (percentage) ([1]; mec gene complex A (n = 4), Overall): 4 (100%) | resistant isolates, number (percentage) ([1]; mec gene complex A (n = 4), SCCmec type II): 3 (100%) | resistant isolates, number (percentage) ([1]; mec gene complex A (n = 4), SCCmec type III): 1 (100%) | resistant isolates, number (percentage) ([1]; mec gene complex B (n = 10), Overall): 2 (20%) | resistant isolates, number (percentage) ([1]; mec gene complex B (n = 10), SCCmec type I): 1 (50%) | resistant isolates, number (percentage) ([1]; mec gene complex B (n = 10), SCCmec type IV): 1 (12.5%) | resistant isolates, number (percentage) ([1]; mec gene complex C2 (n = 4), Overall): 2 (50%) | resistant isolates, number (percentage) ([1]; mec gene complex C2 (n = 4), SCCmec type V): 2 (50%) | MRSP isolates susceptible ([2]; 13 MRSP isolates): 92%

CC1=C(C(=O)O)N2C(=O)[C@@H](NC(=O)[C@H](N)c3ccccc3)[C@H]2SC1 [Cephalexin]
isolates resistant (Kirby-Bauer disc diffusion) ([1]; CA-MRSA (n = 10)): 20.00% | isolates resistant (Kirby-Bauer disc diffusion) ([1]; HA-MRSA (n = 10)): 80.00% | isolates resistant (Kirby-Bauer disc diffusion) [1, 3]: 10.00% | Total isolates resistant (Kirby-Bauer disc diffusion) [1]: 40.00%

CCC[C@@H]1C[C@@H](C(=O)N[C@@H]([C@H]2O[C@H](SC)[C@H](O)[C@@H](O)[C@H]2O)[C@H](C)Cl)N(C)C1 [Clindamycin]
isolates resistant (Kirby-Bauer disc diffusion) ([1]; CA-MRSA (n = 10)): 50.00% | isolates resistant (Kirby-Bauer disc diffusion) ([1]; HA-MRSA (n = 10)): 50.00% | isolates resistant (Kirby-Bauer disc diffusion) [1, 3]: 30.00% | Total isolates resistant (Kirby-Bauer disc diffusion) [1]: 43.33% | Total isolates resistant (Kirby-Bauer disc diffusion) ([1]; listed as clindamycin): 43.33% | disk diffusion zone diameter (S. pneumoniae isolates; A66.1): 34 mm | disk diffusion zone diameter (S. pneumoniae isolates; D39): 27 mm | disk diffusion zone diameter (S. pneumoniae isolates; EF3030): 26 mm | disk diffusion zone diameter (S. pneumoniae isolates; L82016): 32 mm | disk diffusion zone diameter (S. pneumoniae isolates; P9): 31 mm | disk diffusion zone diameter (S. pneumoniae isolates; P21): 25 mm | disk diffusion zone diameter (S. pneumoniae isolates; TIGR4): 28 mm | disk diffusion zone diameter (S. pneumoniae isolates; WCH16): 28 mm | disk diffusion zone diameter (S. pneumoniae isolates; WCH43): 22 mm | disk diffusion zone diameter (S. pneumoniae isolates; WCH46): 30 mm | disk diffusion zone diameter (S. pneumoniae isolates; WCH57): 34 mm | disk diffusion zone diameter (S. pneumoniae isolates; WCH77): 28 mm | disk diffusion zone diameter (S. pneumoniae isolates; WCH86): 30 mm | disk diffusion zone diameter (S. pneumoniae isolates; WCH89): 27 mm | disk diffusion zone diameter (S. pneumoniae isolates; WCH92): 24 mm | disk diffusion zone diameter (S. pneumoniae isolates; WCH137): 26 mm | disk diffusion zone diameter (S. pneumoniae isolates; WCH158): 32 mm | disk diffusion zone diameter (S. pneumoniae isolates; WCH184): 10 mm | disk diffusion susceptibility category (S. pneumoniae isolates; WCH184 (Table 18)): R | disk diffusion zone diameter (S. pneumoniae isolates; WCH211): 27 mm | disk diffusion zone diameter (S. pneumoniae isolates; WU2): 27 mm

CC1(C)S[C@@H]2[C@H](NC(=O)Cc3ccccc3)C(=O)N2[C@H]1C(=O)O [Penicillin-G]
isolates resistant (Kirby-Bauer disc diffusion) ([1]; CA-MRSA (n = 10)): 100.00% | isolates resistant (Kirby-Bauer disc diffusion) ([1]; HA-MRSA (n = 10)): 100.00% | isolates resistant (Kirby-Bauer disc diffusion) [1, 3]: 50.00% | Total isolates resistant (Kirby-Bauer disc diffusion) [1]: 83.33% | Total isolates resistant (Kirby-Bauer disc diffusion) ([1]; listed as penicillin-G): 83.33%

CO[C@H]1/C=C/O[C@@]2(C)Oc3c(C)c(O)c4c(O)c(c(/C=N/N5CCN(C)CC5)c(O)c4c3C2=O)NC(=O)/C(C)=C\C=C\[C@H](C)[C@H](O)[C@@H](C)[C@@H](O)[C@@H](C)[C@H](OC(C)=O)[C@@H]1C [Rifampicin]
isolates resistant (Kirby-Bauer disc diffusion) ([1]; CA-MRSA (n = 10)): 0.00% | isolates resistant (Kirby-Bauer disc diffusion) ([1]; HA-MRSA (n = 10)): 10.00% | isolates resistant (Kirby-Bauer disc diffusion) [1, 3]: 0.00% | Total isolates resistant (Kirby-Bauer disc diffusion) [1]: 3.33% | Total isolates resistant (Kirby-Bauer disc diffusion) ([1]; listed as rifampicin): 3.33% | disk diffusion zone diameter (S. pneumoniae isolates; A66.1): 32 mm | disk diffusion zone diameter (S. pneumoniae isolates; D39): 28 mm | disk diffusion zone diameter (S. pneumoniae isolates; EF3030): 32 mm | disk diffusion zone diameter (S. pneumoniae isolates; L82016): 26 mm | disk diffusion zone diameter (S. pneumoniae isolates; P9): 27 mm | disk diffusion zone diameter (S. pneumoniae isolates; P21): 32 mm | disk diffusion zone diameter (S. pneumoniae isolates; TIGR4): 30 mm | disk diffusion zone diameter (S. pneumoniae isolates; WCH16): 30 mm | disk diffusion zone diameter (S. pneumoniae isolates; WCH43): 27 mm | disk diffusion zone diameter (S. pneumoniae isolates; WCH46): 29 mm | disk diffusion zone diameter (S. pneumoniae isolates; WCH57): 38 mm | disk diffusion zone diameter (S. pneumoniae isolates; WCH77): 33 mm | disk diffusion zone diameter (S. pneumoniae isolates; WCH86): 31 mm | disk diffusion zone diameter (S. pneumoniae isolates; WCH89): 32 mm | disk diffusion zone diameter (S. pneumoniae isolates; WCH92): 22 mm | disk diffusion zone diameter (S. pneumoniae isolates; WCH137): 30 mm | disk diffusion zone diameter (S. pneumoniae isolates; WCH158): 34 mm | disk diffusion zone diameter (S. pneumoniae isolates; WCH184): 32 mm | disk diffusion zone diameter (S. pneumoniae isolates; WCH211): 32 mm | disk diffusion zone diameter (S. pneumoniae isolates; WU2): 31 mm

CO[C@@]1(NC(=O)Cc2cccs2)C(=O)N2C(C(=O)O)=C(COC(N)=O)CS[C@@H]21 [cefoxitin]
MRSP isolates susceptible ([2]; 13 MRSP, cefoxitin resistance break point set at ≤30 mm): 7.7% | MRSP isolates susceptible ([2]; 13 MRSP, cefoxitin resistance breakpoint set at ≤24 mm): 23% and 38% | ZD ([2]; isolate S1P1): 0 mm | ZD, Adl ([2]; isolate S1P1): 0 mm | ZD ([2]; isolate S2P2): 21 mm | ZD, Adl ([2]; isolate S2P2): 21 mm | ZD ([2]; isolate S3P3): 21 mm | ZD, Adl ([2]; isolate S3P3): 24 mm | ZD ([2]; isolate S4P4): 29 mm | ZD, Adl ([2]; isolate S4P4): 20 mm | ZD ([2]; isolate S5P5): 26 mm | ZD, Adl ([2]; isolate S5P5): 30 mm | ZD ([2]; isolate S6P6): 22 mm | ZD, Adl ([2]; isolate S6P6): 26 mm | ZD ([2]; isolate S7P7): 21 mm | ZD, Adl ([2]; isolate S7P7): 19 mm | ZD ([2]; isolate S8P8): 21 mm | ZD, Adl ([2]; isolate S8P8): 22 mm | ZD ([2]; isolate S9P9): 23 mm | ZD, Adl ([2]; isolate S9P9): 26 mm | ZD ([2]; isolate S10P10): 21 mm | ZD, Adl ([2]; isolate S10P10): 25 mm | ZD ([2]; isolate S11P11): 22 mm | ZD, Adl ([2]; isolate S11P11): 21 mm | ZD ([2]; isolate S12P12): 24 mm | ZD, Adl ([2]; isolate S12P12): 24 mm | ZD ([2]; isolate S13P13): 36 mm | ZD, Adl ([2]; isolate S13P13): 40 mm | ZD ([2]; isolate S14P14): 34 mm | ZD, Adl ([2]; isolate S14P14): 32 mm | ZD ([2]; isolate S15P15): 33 mm | ZD, Adl ([2]; isolate S15P15): 34 mm | ZD ([2]; isolate S16P16): 38 mm | ZD, Adl ([2]; isolate S16P16): 42 mm | ZD ([2]; isolate S17P17): 36 mm | ZD, Adl ([2]; isolate S17P17): 38 mm | ZD ([2]; isolate S18P18): 25 mm | ZD, Adl ([2]; isolate S18P18): 40 mm | ZD ([2]; isolate S19P19): 36 mm | ZD, Adl ([2]; isolate S19P19): 38 mm | ZD ([2]; isolate S20P20): 38 mm | ZD, Adl ([2]; isolate S20P20): 36 mm | ZD ([2]; isolate S21P21): 36 mm | ZD, Adl ([2]; isolate S21P21): 40 mm | ZD ([2]; isolate S22P22): 34 mm | ZD, Adl ([2]; isolate S22P22): 35 mm | ZD ([2]; isolate S23P23): 29 mm | ZD, Adl ([2]; isolate S23P23): 26 mm

CC(=O)OCC1=C(C(=O)O)N2C(=O)[C@@H](NC(=O)Cc3cccs3)[C@H]2SC1 [cephalothin]
MRSP isolates susceptible ([2]; 13 MRSP isolates): 62%

COc1c(N2C[C@@H]3CCCN[C@@H]3C2)c(F)cc2c(=O)c(C(=O)O)cn(C3CC3)c12 [moxifloxacin]
MRSP isolates susceptible ([2]; 13 MRSP isolates): 92%
